Assay results: patent US20240382502A1, “COMPOSITIONS AND METHODS FOR DEEP DERMAL DRUG DELIVERY” (ARCUTIS BIOTHERAPEUTICS, INC., priority 2020, published 2024)

Key:
[1] = orally administered, women; cited from earlier work
JAK1 = JAK1 (Homo sapiens, UniProt P23458); conditions: in words; cited from earlier work
[2] = Particle size distribution by laser diffraction; assay type: physicochemical; conditions: SHR0302 used in Example 1, Malvern Hydro MV, ethyl acetate dispersion
Text: In the pharmaceutical compositions of the present invention, the active ingredient is present as small particles. Particle size of the drug can be assessed using laser diffraction methods. Laser diffraction is recognized by standards and guidance agencies including ISO and ASTM and is widely used to determine particle size distributions. In conducting the assessment, the sample is passed through a laser beam, which results in laser light scattered at a range of angles. Detectors placed at fixed angles measure the intensity of light scattered at that position. A mathematical model is then applied to generate a particle size distribution. The particle size values reported herein are determined by using a liquid or wet dispersion method.
In particle size determinations, the median value is defined as the value where half of the population resides above this point, and half resides below this point. For particle size distributions the median is called the D50. The D50 is the size that splits the distribution with half above and half below this diameter. The distribution width may also be characterized by citing one, two or three values on the x-axis, typically some combination of the D10, D50, and D90. The D50, the median, has been defined above as the diameter where half of the population lies below this value. Similarly, 90 percent of the distribution lies below the D90, and 10 percent of the population lies below the D10.
A pharmaceutical composition comprising 3% SHR0302 suspended in dimethicone was prepared. The primary particle size distribution of the SHR0302 is characterized by a D10 value of less than about 0.25 μm; a D50 value of less than about 0.7 μm; and a D90 value of less than about 5 μm. The pharmaceutical composition was a transparent solution due to the particles being too small to scatter visible light. A Malvern Metasizer Model 3000 using the Hydro MV dispersion unit was used to determine the particle size distribution profile of SHR0302. […]

Sequence of JAK1 (P23458 whole entry): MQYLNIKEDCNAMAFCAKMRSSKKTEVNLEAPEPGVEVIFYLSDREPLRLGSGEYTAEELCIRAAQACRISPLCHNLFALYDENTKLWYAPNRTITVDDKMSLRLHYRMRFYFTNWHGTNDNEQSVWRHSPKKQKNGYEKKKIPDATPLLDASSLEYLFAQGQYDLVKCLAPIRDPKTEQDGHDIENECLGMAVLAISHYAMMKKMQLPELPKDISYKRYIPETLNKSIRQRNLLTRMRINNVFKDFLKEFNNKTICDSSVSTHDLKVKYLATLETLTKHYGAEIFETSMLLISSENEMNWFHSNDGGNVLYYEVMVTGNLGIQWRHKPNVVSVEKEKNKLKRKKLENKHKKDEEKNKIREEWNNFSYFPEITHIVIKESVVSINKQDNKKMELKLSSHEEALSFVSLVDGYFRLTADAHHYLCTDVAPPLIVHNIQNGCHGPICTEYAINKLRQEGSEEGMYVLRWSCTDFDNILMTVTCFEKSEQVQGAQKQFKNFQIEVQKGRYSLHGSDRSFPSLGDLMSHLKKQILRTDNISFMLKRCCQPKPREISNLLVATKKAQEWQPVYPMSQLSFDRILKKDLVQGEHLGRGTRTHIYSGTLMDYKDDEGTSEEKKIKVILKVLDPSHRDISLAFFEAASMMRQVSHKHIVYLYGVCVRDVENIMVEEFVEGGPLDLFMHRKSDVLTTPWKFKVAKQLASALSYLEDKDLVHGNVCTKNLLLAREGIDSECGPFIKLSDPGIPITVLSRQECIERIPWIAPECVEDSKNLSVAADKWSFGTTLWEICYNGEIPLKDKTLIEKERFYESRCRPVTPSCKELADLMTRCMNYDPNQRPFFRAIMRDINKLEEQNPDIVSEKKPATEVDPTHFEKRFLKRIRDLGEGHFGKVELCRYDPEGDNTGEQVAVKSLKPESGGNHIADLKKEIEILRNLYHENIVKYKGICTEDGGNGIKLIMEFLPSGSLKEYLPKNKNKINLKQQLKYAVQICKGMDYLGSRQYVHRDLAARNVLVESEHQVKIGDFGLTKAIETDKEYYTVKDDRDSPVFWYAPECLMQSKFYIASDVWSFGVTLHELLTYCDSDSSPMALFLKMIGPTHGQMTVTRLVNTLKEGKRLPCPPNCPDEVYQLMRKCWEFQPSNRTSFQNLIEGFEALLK

SMILES	efficacy in treatment of acne [1]	inhibition of JAK1 (JAK1)	selectivity for JAK1 over JAK2 (JAK1)	primary particle size distribution D10 [2]	primary particle size distribution D50 [2]	primary particle size distribution D90 [2]
CC(=O)S[C@@H]1CC2=CC(=O)CC[C@]2(C)[C@H]2CC[C@@]3(C)[C@@H](CC[C@@]34CCC(=O)O4)[C@H]12 [spironolactone, 17-hydroxy-7α-mercapto-3-oxo-17α-pregn-4-ene-21-carboxylic acid γ-lactone acetate]	efficacious					
COc1nsc(NC(=O)N2C[C@H]3C[C@H](N(C)c4ncnc5[nH]ccc45)C[C@H]3C2)n1 [SHR0302, (3aR,5S,6aS)-N-(3-methoxyl-1,2,4-thiadiazol-5-yl)-5-(methyl(7H-pyrrolo[2,3-d]pyrimidin-4-yl)amino)hexahydrocyclopenta[c]pyrrole-2(1H)-carboxamide]		potent	high selectively for JAK1 over JAK2	less than 0.25 μm	less than 0.7 μm	less than 5 μm
